Experimental data reported in EPA's CvTdb concentration-time database.
Each block holds one compound with its values, some of them ahead of it.

Assays:
[1] = system: Rat; assay: concentration in plasma after dosing; conditions: 1.5 h; dosed: 2-Methyltetrahydrofuran; 40 mg/kg; iv; Male; Harlan Sprague Dawley
[2] = system: Rat; assay: concentration in brain after dosing; conditions: 0.75 h; dosed: 2-Methyltetrahydrofuran; 40 mg/kg; iv; Male; Harlan Sprague Dawley
[3] = system: Rat; assay: concentration in plasma after dosing; conditions: 4 h; dosed: 2-Methyltetrahydrofuran; 40 mg/kg; iv; Male; Harlan Sprague Dawley
[4] = system: Rat; assay: concentration in plasma after dosing; conditions: 0.5 h; dosed: 2-Methyltetrahydrofuran; 40 mg/kg; iv; Male; Harlan Sprague Dawley
[5] = system: Rat; assay: concentration in kidney after dosing; conditions: 6 h; dosed: Fluorotelomer alcohol 8+2; 80 mg/kg; oral; Female; Harlan Sprague Dawley
[6] = system: Rat; assay: concentration in liver after dosing; conditions: 3 h; dosed: Fluorotelomer alcohol 8+2; 80 mg/kg; oral; Female; Harlan Sprague Dawley
[7] = system: Rat; assay: concentration in liver after dosing; conditions: 12 h; dosed: Fluorotelomer alcohol 8+2; 24 mg/kg; oral; Male; Harlan Sprague Dawley
[8] = system: Rat; assay: concentration in kidney after dosing; conditions: 6 h; dosed: Fluorotelomer alcohol 8+2; 80 mg/kg; oral; Female; Harlan Sprague Dawley; remark: listed apart in the source
[9] = system: Rat; assay: concentration in plasma after dosing; conditions: dosed: Fluorotelomer alcohol 8+2, 12 mg/kg, oral, Male, Harlan Sprague Dawley
[10] = system: Rat; assay: concentration in plasma after dosing; conditions: 5 min; dosed: Gemfibrozil; 50 mg/kg; oral; Male; Sprague-Dawley
[11] = system: Rat; assay: concentration in plasma after dosing; conditions: 2 h; dosed: Gemfibrozil; 50 mg/kg; oral; Male; Sprague-Dawley
[12] = system: Rat; assay: concentration in plasma after dosing; conditions: 1.5 h; dosed: Perfluorohexanoic Acid; 40 mg/kg; iv; Male; F344
[13] = system: Rat; assay: concentration in plasma after dosing; conditions: dosed: Perfluorohexanoic Acid, 40 mg/kg, iv, Male, F344
[14] = system: Rat; assay: concentration in plasma after dosing; conditions: 1.5 h; dosed: Perfluorohexanoic Acid; 40 mg/kg; iv; Male; F344; remark: listed apart in the source
[15] = system: Rat; assay: concentration in kidney after dosing; conditions: 3 h; dosed: Perfluorohexanoic Acid; 80 mg/kg; oral; Female; Harlan Sprague Dawley
[16] = system: Rat; assay: concentration in liver after dosing; conditions: 6 h; dosed: Perfluorooctane Sulfonate; 2 mg/kg; oral; Female; Harlan Sprague Dawley
[17] = system: Rat; assay: concentration in liver after dosing; conditions: 3360 h; dosed: Perfluorooctane Sulfonate; 20 mg/kg; oral; Male; Harlan Sprague Dawley
[18] = system: Rat; assay: concentration in brain after dosing; conditions: 24 h; dosed: Perfluorooctane Sulfonate; 20 mg/kg; oral; Female; F344
[19] = system: Rat; assay: concentration in kidney after dosing; conditions: 1848 h; dosed: Perfluorooctane Sulfonate; 20 mg/kg; oral; Male; Harlan Sprague Dawley
[20] = system: Rat; assay: concentration in liver after dosing; conditions: 1848 h; dosed: Perfluorooctane Sulfonate; 2 mg/kg; oral; Female; Harlan Sprague Dawley
[21] = system: Rat; assay: concentration in plasma after dosing; conditions: dosed: Perfluorooctane Sulfonate, 2 mg/kg, iv, Female, Harlan Sprague-Dawley
[22] = system: Rat; assay: concentration in liver after dosing; conditions: 6 h; dosed: Perfluorooctane Sulfonate; 2 mg/kg; oral; Female; Harlan Sprague Dawley; remark: listed apart in the source

SMILES: CC1CCCO1 (stereo unspecified) [2-Methyltetrahydrofuran]
concentration in plasma [1]: 19300 ng/mL
concentration in brain [2]: 15400 ng/mL
concentration in plasma [3]: 1880 ng/mL
concentration in plasma [4]: 25600 ng/mL

SMILES: O=C(O)C(F)(F)C(F)(F)C(F)(F)C(F)(F)C(F)(F)F [Perfluorohexanoic Acid]
concentration in plasma [12]: 175 ng/mL
concentration in plasma ([13]; 0.25 h): 19100 ng/mL
concentration in plasma ([13]; 6 h): 2380 ng/mL
concentration in plasma [14]: 336 ng/mL
concentration in kidney [15]: 71400 ng/g

SMILES: O=S(=O)([O-])C(F)(F)C(F)(F)C(F)(F)C(F)(F)C(F)(F)C(F)(F)C(F)(F)C(F)(F)F [Perfluorooctane Sulfonate]
concentration in liver [16]: 24500 ng/g
concentration in liver [17]: 15700 ng/g
concentration in brain [18]: 15200 ng/g
concentration in kidney [19]: 4810 ng/g
concentration in liver [20]: 12000 ng/g
concentration in plasma ([21]; 1 h): 4320 ng/mL
concentration in plasma ([21]; 192 h): 3170 ng/mL
concentration in plasma ([21]; 2376 h): 542 ng/mL
concentration in liver [22]: 19800 ng/g

Continued, values first:

concentration in kidney [5]: 3640 ng/g
concentration in liver [6]: 10700 ng/g
concentration in liver [7]: 1580 ng/g
concentration in kidney [8]: 3960 ng/g
concentration in plasma ([9]; 0.5 h): 133 ng/mL
concentration in plasma ([9]; 9 h): 218 ng/mL
SMILES: O=C(O)CCC(F)(F)C(F)(F)C(F)(F)C(F)(F)C(F)(F)C(F)(F)C(F)(F)F [Fluorotelomer acid 7+3]

concentration in plasma [10]: 2350 ng/mL
concentration in plasma [11]: 7210 ng/mL
SMILES: Cc1ccc(C)c(OCCCC(C)(C)C(=O)O)c1 [Gemfibrozil]
